US20130095189A1, “COMPOSITION AND METHOD OF PHYTONUTRIENTS FOR METABOLIC PROGRAMMING EFFECTS” (priority 2011, published 2013)
Entries after “also recorded” stand apart in the source; their conditions may differ.

Legend:
Type in all cases: cell-based, human
UGT mRNA = UGT mRNA expression by TaqMan real-time PCR in skin fibroblast cell models
Source text: (§1) Total cellular RNA is isolated using Genelute Mammalian Total RNA Kit (Sigma-Aldrich) according to the manufacturer's instructions. […] Standard curves are constructed with serial dilutions of control sample and analyzed using ABI software. Data are normalized against a house keeping gene, 18S ribosomal RNA. Gene expression is quantified by ^ΔΔCt method where fold of induction=2^-ΔΔ[…]., Analysis of relative gene expression data using real-time quantitative PCR and the 2(-Delta Delta C(T)) Method. Methods 2001. 25, 402-408).

GST (GSTA1) = assay: GST protein expression by immunoblotting in skin fibroblast cell models; details: 24 h
Experimental: (§2) Treated and control cells are washed twice with ice cold phosphate buffered saline (PBS) and then incubated for 30 min in the Nonidet P-40 (NP-40) buffer (20 mM Tris-HCl, pH 8, 150 mM NaCl, 10% glycerol, 1% NP-40) containing one tablet of complete mini-EDTA-free protease inhibitor cocktail (Roche) in 10 ml buffer. Cells are harvested by scraping and the homogenate is centrifuged at 13,684 g at 4° C. for 15 min. The supernatants are collected and frozen at −80° C. The protein concentrations are determined using Bradford reagent (Sigma) according to the manufacturer's instructions. 20 μg of protein lysate is resolved by 10% SDS-polyacrylamide gel and transferred onto polyvinylidenedifluoride membranes (Bio-Rad) with a semidry transfer cell (Trans-Blot; Bio-Rad). Membranes are blocked for 1 hour at room temperature or overnight at 4° C. with Marvel fat-free milk powder (5% w/v), Tween 20 (0.05%, v/v) in PBS. Proteins of interest are visualized by exposing membranes to primary antibodies in milk for 2 hours at room temperature. Dilutions of antibodies are rabbit polyclonal GSTA1, 1:2000, goat polyclonal NQO1 1:1000 and goat polyclonal UGT1A 1:1000. Following primary antibody incubation membranes are incubated with suitable HRP-conjugated secondary antibody and signals are detected using an enhanced chemiluminescence kit (GE Healthcare) according to manufacturer's instructions. β-actin level is determined as loading control and bands are visualized using Fujifilm LAS3000 Imager.

GST mRNA = GST mRNA expression by TaqMan real-time PCR in skin fibroblast cell models
Source text: as §1

NQO1 = NQO1 protein expression by immunoblotting in skin fibroblast cell models; details: 24 h
Experimental: as §2

NQO1 mRNA = NQO1 mRNA expression by TaqMan real-time PCR in skin fibroblast cell models
Source text: as §1

UGT (UGT1A) = assay: UGT protein expression by immunoblotting in skin fibroblast cell models; details: 24 h
Experimental: as §2

[1] = adult cell model, highest concentration (20 μM), control=1
[2] = cell model, all concentrations tested
[3] = 1 month old cell model, 5, 10, 20 μM
[4] = 1 month old cell model, control=1

Compound | UGT mRNA expression relative to control (UGT mRNA; adult cell model, 5, 10, 20 μM) | GST protein expression (immunoblot, ratio to beta-actin) (GST (GSTA1); adult cell model, 5, 10, 20 μM) | upregulation of GST mRNA compared to control (GST mRNA; [4]) [fold] | GST mRNA expression relative to control (GST mRNA; adult cell model, 5, 10, 20 μM) | NQO1 protein expression (immunoblot, ratio to beta-actin) (NQO1; adult cell model, higher dose) | NQO1 mRNA expression relative to control (NQO1 mRNA; [3]) | UGT protein expression (immunoblot, ratio to beta-actin) (UGT (UGT1A); cell model, higher doses) | GST protein expression (immunoblot, ratio to beta-actin) (GST (GSTA1); cell model, higher doses) | GST mRNA expression relative to control (GST mRNA; infant cell models) | NQO1 protein expression (immunoblot, ratio to beta-actin) (NQO1; cell model, higher doses) | NQO1 mRNA expression relative to control (NQO1 mRNA; adult cell model, 5, 10, 20 μM) | NQO1 mRNA expression relative to control (NQO1 mRNA; infant cell models) | other results
O=c1c(O)c(-c2ccc(O)c(O)c2)oc2cc(O)cc(O)c12 [quercetin] | significant dose-dependent increase | increases | 3.9 | significant dose-dependent increase | significant upregulation | significantly increased | – | – | – | – | – | – | upregulation of UGT mRNA (UGT mRNA; [1]): 5.5 fold; UGT mRNA expression relative to control (UGT mRNA; [2]): do not demonstrate any significant changes; GST mRNA expression relative to control (GST mRNA; [3]): significantly increased; upregulation of GST mRNA (GST mRNA; [1]): 7.4 fold; GST mRNA expression relative to control (GST mRNA; [2]): do not demonstrate any significant changes; upregulation of NQO1 mRNA compared to control (NQO1 mRNA; [4]): 7.2 fold; NQO1 mRNA expression relative to control (NQO1 mRNA; [2]): do not demonstrate any significant changes
C[S+]([O-])CCCCN=C=S (stereo not drawn) [sulforaphane, 4-methylsulfinylbutyl isothiocyanate] | significant increase | – | – | significant increase | – | – | significantly upregulated | significantly upregulated | significantly increased; also recorded: significant increases | significantly upregulated | significant increase | significant increases | UGT protein expression (immunoblot, ratio to beta-actin) (UGT (UGT1A); [3]): significant induction; UGT protein expression (immunoblot, ratio to beta-actin) (UGT (UGT1A); adult cell model, 5, 10, 20 μM): affected; NQO1 protein expression (immunoblot, ratio to beta-actin) (NQO1; adult cell model, 5, 10, 20 μM): significant upregulation; increase in NQO1 mRNA compared to control (NQO1 mRNA; infant cell models, control=1): 6-35 fold
catechin | an increase | increases | 3.7 | dose-response upregulation | significant upregulation | unaffected | significantly upregulated | significantly upregulated | significant increases | significantly upregulated | dose-response upregulation | significant increases | UGT mRNA expression relative to control (UGT mRNA; [3]): unaffected; increase in NQO1 mRNA expression (NQO1 mRNA; cell model, control=1): 4.5 fold
